The text below walks through data of paper PMC8849047, “Salicylate metal-binding isosteres as fragments for metalloenzyme inhibition” (Chemical Science, 2022).

The target of data set [1] is T1, Recombinant human glyoxalase I (GLO1) (Homo sapiens, UniProt Q04760).
T1 construct: purchased R&D Systems 4959-GL
T1 sequence (Q04760 2-184 limits assumed): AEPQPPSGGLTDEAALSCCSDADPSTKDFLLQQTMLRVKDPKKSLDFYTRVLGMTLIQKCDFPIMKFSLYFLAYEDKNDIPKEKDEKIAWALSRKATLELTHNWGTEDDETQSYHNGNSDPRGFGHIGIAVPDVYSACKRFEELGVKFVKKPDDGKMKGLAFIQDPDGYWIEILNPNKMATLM
The experiment in a line: GLO1 enzyme inhibition assay (absorbance at 240 nm). Format: biochemical. The conditions noted are these: for inhibition at 100 µM: read-out: %inhib GLO1. The procedure: To evaluate if the salicylate MBIs could serve as starting points for future FBDD campaigns, the MBI library was screened for inhibitory activity against human glyoxalase I (GLO1) at fragment concentrations of 100 μM (Table 2). […] Recombinant human glyoxalase I (GLO1) was purchased from R&D Systems (catalog #4959-GL). Assays were carried out in 0.1 M sodium phosphate, pH 7.0 buffer, utilizing 96-well clear UV plates (Corning UV Transparent Microplates, catalog #3635). A fresh solution of GSH (100 mM) and methylglyoxal (MG) (100 mM) was prepared in Millipore grade water. […] The substrate mixture was vortexed vigorously for 45 s and then allowed to sit at room temperature for 15 min. The initial well volume was 50 μL containing GLO1 (40 ng) and inhibitor. This protein and inhibitor mixture was incubated for 15–20 min prior to addition of the substrate. […] The enzyme activity was measured utilizing a Biotek Synergy HT or H4 plate reader by measuring absorbance at 240 nm every 1 min for a duration of 8 min. The rate of absorbance increase was compared for samples versus controls containing no inhibitor (set at 100% activity). The absorbance reading for background wells containing DMSO, buffer, and substrate (no enzyme or inhibitor) was subtracted from the experimental wells. […] Dose-response curves were generated, analysed and fitted to obtain IC50 values (see ESI ^†).
5. Single Point screening
Single point screening of salicylate MBI library against GLO1 at 100 µM inhibitor concentration. Chugai 1 (4,6-diphenyl-N-hydroxypyridone) 4 as positive control. […]
6. Dose-response curves against GLO1
The raw data from the GLO1 assay was background corrected and normalized from 0 to 100 with 100 being the largest mean of each dataset. A variable slope log-logistic model was chosen for curve fitting.
The corresponding datapoints are shown as empty bullets and were not included in the curve-fitting. The resulting restricted datasets were fitted according to a literature procedure setting the lower limit of the dose-response curve to zero. This compensates for the loss of information caused by trimming of the dataset. 5,6
Figure S7. Dose-response curve of 11 against GLO1.

In data set [2] the target is T1, Recombinant human glyoxalase I (GLO1). On the set-up: method as in previous studies (unpublished). Conditions: ref previous studies (unpublished); read-out: IC50 against GLO1; cited from earlier work.
In data set [3] the test system is influenza H1N1 N-terminal PA endonuclease (PAN). The experiment in a line: PAN endonuclease inhibition assay (fluorescent ssDNA-oligo substrate). It counts as biochemical. The conditions noted are these: 100 μM; standard deviation in parentheses.
A short description of data set [4]: log P by potentiometric titration octanol/water (Sirius T3); log D7.4 calculated from pKa and log P. The conditions noted are these: for logD: pH 7.4. Format: physicochemical. The procedure:
In addition to gaining an understanding about the metal coordinating properties of the salicylate MBIs by using [(Tp^Ph,Me)Zn(MBI)] model complexes, the physicochemical properties of the MBIs were also studied. The acidity (pKa) and lipophilicity (log P) were measured using potentiometric methods and the lipophilicity at physiological pH (log D7.4) was calculated from these two values (Table 1).[23–25]
(§1) Physicochemical properties were determined using a Sirius T3 instrument.[23–25] […] The pKa of a compound was determined by analysing each MBI sample in triplicate using potentiometric titrations. Experiments were typically performed over a pH range of 2.0–12.0. Standard deviations were derived from fitting all three replicate experiments. For water insoluble compounds methanol was added and the obtained apparent pKa (psKa) was extrapolated to the aqueous pKa by the Yasuda–Shedlovsky procedure. log P was determined via potentiometric titrations in the presence of varying ratios of octanol and water. The presence of octanol shifts the pKa of ionizable species, and based on the shifts, a log P can be determined. Measurements for log P determination were typically performed over a pH range of 2.0–12.0. Three experiments with varying ratios of water:octanol was performed, allowing for a standard deviation to be determined from the fitting of all measurements. MBI sample sizes were ∼0.5 mg for both pKa and log P measurements.

In data set [5] the target is T2, Human recombinant MMP-3 catalytic domain (Homo sapiens, UniProt P08254).
T2 construct: Human recombinant MMP-3 catalytic domain was purchased; purchased ENZO Life Sciences BML-SE109-9090
T2 sequence (P08254 100-272 limits assumed): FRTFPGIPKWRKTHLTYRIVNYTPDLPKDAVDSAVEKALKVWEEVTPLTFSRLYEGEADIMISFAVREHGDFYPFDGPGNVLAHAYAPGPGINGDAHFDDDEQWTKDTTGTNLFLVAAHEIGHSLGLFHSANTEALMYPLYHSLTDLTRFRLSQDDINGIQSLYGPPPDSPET
The experiment in a line: MMP-3 enzyme inhibition assay (chromogenic substrate, 412 nm). It counts as biochemical. Conditions: standard deviation in parentheses, read-out: %inhib MMP-3. The procedure: To probe the selectivity of the salicylate MBIs, the library was screened against matrix metalloproteinase-3 (MMP-3) at fragment concentrations of 100 μM (Table 2).
Human recombinant MMP-3 catalytic domain was purchased from ENZO Life Sciences (catalog # BML-SE109-9090). Assays were carried out in clear Costar 96-well, half-area, flat-bottom assay plates (catalog # 80-2404). Each well contained a total volume of 100 μL including buffer (50 mM MES, 10 mM CaCl2, 0.05% Brij-35, 1 mM DNTB, pH 6.0), MMP-3 (2 U), and the fragment solution. After a 30 min incubation period at 37 °C, the reaction was initiated by the addition of 10 μL of chromogenic MMP-3 substrate (100 μM final concentration, Ac-Pro-Leu-Gly-[2-mercap-to-4-methyl-pentanoyl]-Leu-Gly-OC2H5, ENZO Life Sciences, catalog #BML-P125-0005). Absorbance was monitored at 412 nm using a Bio-Tek ELx 808 colorimetric plate reader, and measurements were recorded every minute for 10 min. The rate of absorbance increase was compared for samples versus negative controls (no inhibitor, arbitrarily set as 100% activity).
5. Single Point screening […]
Figure S5. Single point screening of salicylate MBI library against MMP-3 at 100 µM inhibitor
concentration. NNGH as positive control.

Data set [6] is classed as physicochemical. An excerpt:
This was confirmed by computationally calculated physicochemical data (Tables S2 and S3 ^†).

Data set [7] can be described thus: pKa by potentiometric titration (Sirius T3). Format: physicochemical. The procedure: In addition to gaining an understanding about the metal coordinating properties of the salicylate MBIs by using [(Tp^Ph,Me)Zn(MBI)] model complexes, the physicochemical properties of the MBIs were also studied.
as §1

[8] abbreviates: 100 μM, standard deviation in parentheses.

The structures appear in SMILES notation. Like-named read-outs stand apart in the source and are kept apart here.

Usually IC50 stands for the concentration that gives 50% inhibition. By logP is commonly meant the decadic logarithm of the partition coefficient of the neutral form, usually between octanol and water. What is called logD is the decadic logarithm of the distribution of all forms, ionised or not, between an organic phase and buffer at a given pH. As to `O=C(O)c1ccccc1O` [Compound 1, Salicylic acid, reference compound], the inhibition at 100 µM in data set [1] (setting [8]) turned out to be 22%. Moreover, the concentration for half-maximal inhibition (IC50) in data set [2] is greater than 50 µM. In addition, the “%inhib Endo (PAN)” value in data set [3] was 12 (7) %. Further, in data set [4], the logP was 2.18 and the logD was -2.4. The inhibition at 100 µM in data set [5] was found to be 8%.
For the molecule `CS(=O)(=O)Nc1ccccc1-c1nc2ccccc2s1` [Compound 27], the aqueous solubility result in data set [6] is given as “poor aqueous solubility”. Moreover, the inhibition at 100 µM stood at 44% in data set [1] (setting [8]) and 0% in data set [5]. The “%inhib Endo (PAN)” value in data set [3] is reported as 15 (7) %.
In general, pKa refers to the pH at which an ionisable group is half protonated. A low value points to a group that gives up its proton readily. In the case of `O=C(O)c1cccc2nn[nH]c12` [Compound 5], the pKa in data set [7] (pKa) came out at 9.29; in data set [7] (pKa (pKa,1)) it was 3.49. For the same molecule, the inhibition at 100 µM in data set [1] (setting [8]) is 20%; in data set [5], 0%. For the same molecule, the “%inhib Endo (PAN)” value in data set [3] is given as 22 (7) %. In data set [4], the logP was 1.38. Further, the logD in data set [4] is -2.37.
On to `COC(=O)c1ccccc1O` [Compound 6], for which the pKa in data set [7] (pKa (pKa,1)) worked out at 9.8. The inhibition at 100 µM in data set [1] (setting [8]) was 10%. Moreover, the “%inhib Endo (PAN)” value in data set [3] is 21 (6) %. Moreover, in data set [4], the logP is 2.19 and the logD was 2.19. In data set [5], the inhibition at 100 µM is 0%.
In the case of `Oc1ccccc1-c1nc2ccccc2s1` [Compound 11], the aqueous solubility result in data set [6] is on record as “poor aqueous solubility”. Further, the “%inhib GLO1” value in data set [1] (setting [8]) is on record as “almost complete inhibition”. In addition, the inhibition at 100 µM in data set [1] (setting [8]) stood at 94%; in data set [5] it was 0%. Further, the half-inhibitory concentration (IC50) in data set [1] (dose-response curves, read-out: IC50 against GLO1) was 19.6 ± 4.7 µM. For the same molecule, the “%inhib Endo (PAN)” value in data set [3] was 21 (6) %.
Consider `c1ccc2sc(-c3cccc4nc[nH]c34)nc2c1` [Compound 28], for which, in data set [6], the aqueous solubility result was “poor aqueous solubility”. For the same molecule, in data set [3], the “%inhib Endo (PAN)” value is given as 4 (8) %.
Consider `O=C(O)c1cccc2nc[nH]c12` [Compound 4], for which the results for the pKa in data set [7] (pKa), in data set [7] (pKa (pKa,1)) and in data set [7] (pKa (third printed value)) were 5.49, 3.04 and 12.8, respectively. The inhibition at 100 µM in data set [1] (setting [8]) was determined as 38%; in data set [5], 3%. Also, the “%inhib Endo (PAN)” value in data set [3] turned out to be 0%. Besides, the logP in data set [4] was -1.4. The log distribution coefficient (logD) in data set [4] is -2.09.
As for `CONC(=O)c1cccc2nn[nH]c12` [Compound 19], the pKa in data set [7] (pKa) is 9.93; in data set [7] (pKa (pKa,1)), 6.99. Moreover, the values for the inhibition at 100 µM in data set [1] (setting [8]) and in data set [5] were 17% and 0%, respectively. Also, the “%inhib Endo (PAN)” value in data set [3] is reported as 31 (7) %. Also, the lipophilicity (logP) in data set [4] is 0.75. In addition, the pH-dependent lipophilicity (logD) in data set [4] was 0.22.
With `COC(=O)c1cccc2oc(=O)[nH]c12` [Compound 13], the pKa in data set [7] (pKa (pKa,1)) was found to be 8.78. In data set [1] (setting [8]), the inhibition at 100 µM came out at 31%. In addition, the “%inhib Endo (PAN)” value in data set [3] was 46 (7) %. For the same molecule, in data set [4], the lipophilicity (logP) is 1.24 and the logD was 1.22. Besides, in data set [5], the inhibition at 100 µM was found to be 0%.
`CONC(=O)c1ccccc1NS(C)(=O)=O` [Compound 16]: the pKa in data set [7] (pKa) amounted to 11.3; in data set [7] (pKa (pKa,1)) it was 7.15. Besides, the inhibition at 100 µM in data set [1] (setting [8]) stood at 16%; in data set [5], 0%. Further, the “%inhib Endo (PAN)” value in data set [3] was 44 (6) %. In data set [4], the logP is 0.12. The logD in data set [4] was -0.33.
